Test results reported in ChEMBL document CHEMBL3507680, “University of Dundee, Gates Library screen for HepG2 cell viability”.

Test: Human HepG2 cell viability assay in 384 well format
Type: toxicity, cell-based
Design: dose 125 nL, time 70.5 hour; cytotoxicity at 70.5 h: concentration not given beside the values
Conditions: HepG2 cells, read-out: Inhibition

| SMILES | cytotoxicity at 70.5 h [%] |
| --- | --- |
| O=C(N1CCCCC1)N1CCN(c2ccc(Cl)nn2)C(=O)C1 | -5.68 |
| Cc1cnn(CC2CCCCN2CCCS(=O)(=O)N(C)C)c1 (stereo not given) | 18.7 |
| O=C(c1cc(C2CC2)n[nH]1)N1C[C@H]2CC[C@](O)(c3ccccc3F)[C@H]2C1 | -2.83 |
| COC(=O)N1CCN2C[C@H](CO)[C@@H](c3ccccc3)[C@H]2C1 | -4.89 |
| CCC(CO)NCc1ccc(-c2ccc(F)cc2)o1 (stereo not given) | -2.16 |
| Cc1cc(C)c2nc(CN3CCC(C#N)CC3)cc(O)c2c1 | -1.43 |
| N#Cc1cc(NS(=O)(=O)c2cc(C(=O)O)cc(Cl)c2Cl)ccc1F | 0.738 |
| Cc1ccc(O)c(CN2CCCCC2CCN2CCOCC2)c1 (stereo not given) | -7.89 |
| CN(C)S(=O)(=O)N1CCN(C(=O)c2ccc3ccn(C)c3c2)CC1 | -7.35 |
| Cc1ccc(S(=O)(=O)NCC2CNCCOC2)cc1Cl (stereo not given) | -2.6 |
| CCN(C)C(=O)c1cnc(-c2noc3cc(N4CCCCC4)ccc23)s1 | 30.7 |
| Cc1ccc(S(=O)(=O)NC(=O)CCOCC(C)C)s1 | 8.21 |
| CC(C)n1c(C(=O)N2CCCC2)nc2c1CCN(C)C2 | -5.23 |
| c1csc(-c2noc(C3CCCOC3)n2)c1 (stereo not given) | -2.62 |
| COc1ccc(NC(=O)CCC2CCCN(S(=O)(=O)C3CC3)C2)c(C)c1 (stereo not given) | -6.39 |
| COc1ccc2c(ccn2CCC(=O)Nc2n[nH]c(C(C)C)n2)c1 | 24.3 |
| Cc1ccc(C(=O)Nc2cccc3c2C(=O)NC3)c(C)n1 | 2.51 |
| Cc1noc(C)c1CN1CC[C@@H]2O[C@H](COCC(C)C)CC[C@@H]21 | -3.29 |
| CN(C)C(=O)CCCS(=O)(=O)Cc1cc(Cl)c2c(c1)OCCO2 | -4.96 |
| CCN(c1ccc(C(=O)NCc2cc[nH]n2)cc1)C(C)C | 22.1 |
| CN1CCN(C(=O)N2CCC3(CCCN(C4CCOCC4)C3=O)C2)CC1 (stereo not given) | -0.535 |
| Cc1cc2cc(C(=O)N[C@@H]3CC[C@@H](N4CCOCC4)[C@@H]3O)ccc2o1 | 24.8 |
| Cc1ccncc1NC(=O)C1CSc2ncc(C)c(=O)n2C1 (stereo not given) | 18.9 |
| CN(C(=O)CN1CCC(c2cc3ccccc3[nH]2)CC1)C1CC1 | -8.97 |
| CCN(Cc1cnn(C)c1)C[C@H]1CC[C@@H](Cc2cccc(CN)c2)O1 | 3.32 |
| COC[C@@]12CCC[C@@H]1CN(C(=O)COc1ccccc1OC)C2 | -3.63 |
| c1nc2c(c(NCCCn3cncn3)n1)CCN(CC1CCOC1)CC2 (stereo not given) | -2.03 |

| SMILES | cytotoxicity at 70.5 h [%] |
| --- | --- |
| COCC1CN(Cc2ccc(OC)cc2)S(=O)(=O)c2cnccc2O1 (stereo not given) | -3.12 |
| O=C(CN(Cc1ccco1)C1CC1)N1CCCCCC1 | -1.39 |
| OC(c1cnn(-c2ccccc2)c1)C(F)(F)F (stereo not given) | -1.66 |
| CC(C)CN1CCC2(C1)CN(S(=O)(=O)c1cn(C)cn1)C2 | 4.36 |
| Cc1nccn1CCCC(=O)N1CCC(Nc2cccnn2)CC1 | 5.36 |
| CN(C)C(=O)NCC(=O)N(C)Cc1cc(-c2ccccc2)no1 | 22 |
| COc1ccc(CN2CCC3(CC2)CCN(CC(=O)N(C)C)C3=O)cc1 | -16.7 |
| COc1ccc(OCc2nc(C(=O)N3CC[C@H](O)[C@@H](O)C3)co2)cc1 | -8.88 |
| Cc1nc(N(C)C)nc(-c2cccc(-c3ccn(CCCO)n3)c2)c1C | -7.13 |
| COc1ccc(-c2n[nH]c(C)c2CC(=O)NCC2CCOCC2)cc1 | -10.5 |
| COc1c(C2CCCN2C(=O)c2cnn(C)c2C2CC2)c(C)nn1C (stereo not given) | -2.81 |
| CCN(C(=O)Nc1nncs1)C(C)c1cccc(OC)c1 (stereo not given) | -9.86 |
| O=S(=O)(NCCC(O)c1cccs1)c1ccccc1Cl (stereo not given) | -10.8 |
| CC(C)=CCS(=O)(=O)Cc1ccn(-c2cccc(F)c2)n1 | -6.79 |
| CC(C)(C)OC(=O)N1CCCc2ccc(NCc3ncc[nH]3)cc21 | 9.84 |
| CSc1c[nH]nc1NS(=O)(=O)c1ccc(C)c(C)c1 | -2.13 |
| O=C(Nc1cc(CSCCO)ccn1)c1ccc(Cl)o1 | -10.5 |
| Cc1ccc(C(=O)NS(=O)(=O)c2ccc3c(c2)OCCCO3)o1 | 11.7 |
| c1ccc(-n2cc(CN3CCCCC3Cn3cncn3)nn2)cc1 (stereo not given) | -0.323 |
| CCc1nccn1C1CCCN(C(=O)c2cnc[nH]2)C1 (stereo not given) | -3.68 |
| CCCNc1ncc(CN2CCC3(CCNC(=O)CC3)CC2)cn1 | -3.92 |
| COc1cc2c(cc1OC)C(=O)C(Sc1nnc(C)o1)C2 (stereo not given) | -15.9 |
| Cc1nc([C@@H]2C[C@@H]3CCN(C(=O)Cc4ccsc4)C[C@H]3O2)no1 | -13.8 |
| CC(C)CCN1CC[C@H](c2nnc(Cc3c[nH]c4ccccc34)o2)C1 | 1.15 |
| COC(=O)C(C)(C)NC(=O)C1CC(=O)N(C2CCCC2)C1 (stereo not given) | -9.13 |
| CCc1ccc(CNC(=O)c2ccc(N3CCOC3=O)cc2)s1 | 20.2 |
| CCC(=O)NC(C)c1ccccc1C (stereo not given) | 0.0127 |

| SMILES | cytotoxicity at 70.5 h [%] |
| --- | --- |
| Cc1nc(NCc2nnc(C)n2C)c2c(CC(C)C)csc2n1 | 0.805 |
| Cc1cc2nc(C(C)C)cc(NCC(c3ccccn3)N(C)C)n2n1 (stereo not given) | 3.67 |
| Cc1cccc(CN2CCc3ncnc(C4CC4)c3CC2)n1 | 5.72 |
| Cc1cc(C)n(C2CCCN(C(=O)C3=NN(C)C(=O)CC3)C2)n1 (stereo not given) | -9.81 |
| CN1CCOC(C(=O)N2CCCC(C)(C)CC2)C1 (stereo not given) | -3.51 |
| O=C(CSc1ccc2c(c1)OCCO2)NS(=O)(=O)c1cc(F)ccc1F | -7.36 |
| O=C(c1ccccn1)N1CCN(c2ccc(-c3cccnc3)nn2)CC1 | -11.4 |
| C[C@@H]1CN(C(=O)Cn2ccc3ncccc3c2=O)C[C@H](C)O1 | -5.8 |
| CNCc1ccc([C@@H]2CN(C(C)=O)C[C@H]2C(N)=O)cc1 | -7.99 |
| CN(C(=O)CCNC(=O)C1COc2ccccc21)c1ccccc1 (stereo not given) | -6.34 |
| Cc1nncn1CCNC(=O)C(C)(C)c1cccc(Cl)c1 | -8.68 |
| CCn1ccnc1CNCC1CCCN1c1cccnn1 (stereo not given) | 5.62 |
| CS(=O)(=O)NC[C@H]1OC[C@H]2CN(CCc3ccccc3)CC[C@H]21 | -0.811 |
| Cn1ccnc1CN1CCCCC1Cn1cccn1 (stereo not given) | 11 |
| CCN(CC)c1ccc(C(=O)N2CCCC2Cn2cc(C)cn2)cn1 (stereo not given) | -5.59 |
| Cc1nc(C)n(CC2CCCN(CCCOc3ccc(F)cc3)C2)n1 (stereo not given) | -2.75 |
| Cc1cc(CN2CCN(C(C)c3nc(C4CC4)no3)CC2)no1 (stereo not given) | -4.52 |
| CC(O)c1cn(Cc2ccc(Cl)cc2Cl)nn1 (stereo not given) | -7.31 |
| Cc1ccc(C(F)(F)F)cc1NCC(=O)Nc1c(C)nn(C)c1C | 11.3 |
| O=C(c1cn(-c2ccccc2C(F)(F)F)nn1)N1CCSCC1 | -15.5 |
| CCC(Nc1nnnn1-c1ccccc1)C(=O)Nc1nc(C)cs1 (stereo not given) | -12.4 |
| O=C(O)CSc1nc(-c2ccc3c(c2)CCC3)n[nH]1 | 2.18 |
| CC(C)=CCN1C(=O)[C@H]2CC[C@@H]1CN(c1ncccn1)C2 | -21 |
| CC1CCCCN1CCNC(=O)NCc1ccc(C#N)cc1F (stereo not given) | -6.05 |
| COc1ccc2cc(C(=O)N3CCCCC3CC(N)=O)[nH]c2c1 (stereo not given) | -15.1 |
| Cn1nc(C(=O)NCc2cccnc2)c2c1CCS(=O)(=O)C2 | 24.8 |
